How the values were obtained:
MCF7 cells = experiment: γH2AX foci nuclear fluorescence after 2.5 Gy; format: cell-based, Human; details: 1 μM, 0–24 hours after irradiation
Method: Cell line γH2AX and 53BP1 foci immunofluorescence and quantitation
Cells grown on coverslips or in 96-well plates were treated with 1 or 5 µM NU5455 or DMSO 1 hour prior to irradiation (0, 2.5 or 10 Gy) using an RS 320 X-ray Research System (Gulmay Medical). At set timepoints (15 or 30 minutes, or 1, 4, 5, 6, or 24 hours post-irradiation), cells were washed and fixed in methanol or 3% paraformaldehyde (PFA). Cells were blocked and permeabilized in 1% (v/v) goat serum/1% (w/v) BSA/0.1% (v/v) Triton X100 or 0.1% (v/v) Triton X100 containing 10% (w/v) dried milk powder and 2% (w/v) bovine serum albumin, followed by incubation with antibodies against γH2AX (JBW301, Millipore #05-636) and/or 53BP1 (Cell Signaling #4937). Cells were then washed and incubated with Alexa Fluor 488 goat anti-mouse and/or Alexa Fluor 568 goat anti -rabbit antibodies (A11001 or A11011 respectively, Invitrogen). In A549 and Calu-6, cells were Hoechst stained (5 µg/ml), and the average numbers of γH2AX and 53BP1 foci per cell were quantified from 400 nuclei per sample using an In Cell analyzer 1000 (GE Healthcare). For MCF7 cells, coverslips were mounted using Vectashield mounting medium with DAPI (Vector Labs) and imaged using a Leica TCS SPE confocal fluorescence microscope. Total fluorescence intensity was determined using ImagePro Plus 5.0 software (Media Cybernetics).
Clonogenic survival assays […]

Huh7 cells = Huh7 cells with single doxorubicin-loaded DC M1 bead (SRB cell density, γH2AX Western); format: cell-based, Human
Method: Exponentially growing HAP-1 DNA-PK proficient or deficient cells were seeded into 6-well plates and allowed to re-attach. Cells were then incubated with vehicle (DMSO) or NU5455 (5 µM) 1 hour prior to irradiation and for a further 24 hours post-irradiation. Cells were then washed in PBS and incubated in drug-free medium to allow for colony formation.
To quantify the number of proliferating versus confluent cells, cells were pulsed with 5-ethynyl-2’-deoxyuridine (EdU), and labeled using the Click-iT Plus EdU Alexa Fluor 647 Flow Cytometry Assay Kit together with FxCycle Violet Stain to label DNA (both Thermo Fisher) following the manufacturer’s instructions. Samples of cells taken from tho se used in the clonogenic assay were used to confirm the percentage of cells in each cell cycle phase.
Samples were acquired on a Symphony A5 flow cytometer (Becton Dickinson, UK).
Cell cycle phase status was also confirmed by microscopy, using cells grown on coverslips i n 6-well plates. […] Coverslips were mounted using Prolong Glass with NucBlue (ThermoFisher) and images were acquired on the Leica TCS SP8 confocal fluorescence […]
Treated cells were fixed with 10% (w/v) trichloroacetic acid (Fisher) at 4°C overnight. Cells were stained with sulphorhodamine B (SRB, 0.4% (w/v) in water), and cell density quantified […]
by determining the absorbance at 570 nm of SRB stain dissolved in Tris base (10 mM, pH 10.5) using a spectrophotometer (BMG Labtech). […]
Blood samples were centrifuged at 6700 x g for 3 minutes, the plasma removed and stored at -20°C prior to analysis for drug by HPLC with fluorescence detection. […]
Samples (20 µl) were applied to a 10 x 0.46 cm Genesis C18 4 µm column (Grace Vydac) fitted with an in-line filter. […] Analytes were detected by fluorescence at 390 nm following excitation at 242 nm. Plasma concentrations were determined using linear standard curves (0.01 µM – 10 µM, R2 > 0.98) generated by extracting compounds from […]
Readings were taken every 2 hours for the first 10 hours and then at 24 hour intervals. […]

CN(C(=O)CN1CCOCC1)c1ccc2sc3c(-c4cccc5c(=O)cc(N6CC7CCC(C6)O7)oc45)cccc3c2c1 [NU5455]
number of γH2AX foci (MCF7 cells): remained elevated even at 24 hours | inhibition of cell density, single agent (Huh7 cells; 96 hours continuous, NU5455 1 μM or a single doxorubicin-loaded bead): ~ 20% | reduction of cell density, combination treatment (Huh7 cells; 96 hours, NU5455 1 μM + single doxorubicin-loaded bead): 57.7% ± 2.1% | γH2AX protein levels (DNA damage induced by released doxorubicin) (Huh7 cells; NU5455 1 μM + doxorubicin-loaded bead, 24–96 hours, Western blotting): augment and sustain the DNA damage
